Results reported in patent US6319897A, “Peptides which inhibit complement activation” (priority 1999, dated 2001).
Like-named read-outs stand apart in the source and are kept apart here. Where a SMILES comes first, the peptide text is derived from it. Bridges are numbered along the chain shown (N, C = ends). The star is where a group is joined. Cam = NC(=O)C*

Legend:
[1] = target: alternative pathway of complement activation (Homo sapiens, UniProt P01024); test: Hemolytic assay, alternative pathway: lysis of rabbit erythrocytes in normal human serum with MgEGTA; format: cell-based
Procedure: Inhibition of the alternative pathway was measured by using rabbit erythrocytes in the presence of MgEGTA (FIG. 3A); inhibition of lysis of antibody-coated sheep erythrocytes was used as an indicator of inhibition of the classical pathway (FIG. 3B).
Inhibition of classical and alternative pathway activity by the peptides was measured. […] The reaction mixture was incubated at 37° C. for 1 hour and centrifuged. […] The effect of peptides on the alternative pathway was determined by measuring the lysis of rabbit erythrocytes (Er) in NHS. Various concentrations of peptide were mixed with 5 μl of NHS, 5 μl of MgEGTA and 10 μl of Er (1×10^9 /ml) and brought to a final volume of 100 μl in GVB. The reaction mixture was incubated at 37° C. for 20 minutes and stopped by adding 200 μl of GVBE. […] The percentage of lysis was normalized by considering 100% lysis to be equal to the lysis occurring in the absence of the peptide.

[2] = system: complement; test: Complement-mediated hemolytic assay (pathway not stated); format: cell-based
Procedure: Inhibition of classical and alternative pathway activity by the peptides was measured. To determine the effect of peptides on the classical pathway, various concentrations of peptide were mixed with 11 μl of normal human serum (NHS, diluted 1:10 in GVB^++) and 5 μl of sheep erythrocytes coated with antibodies (EA) (1×10^9 /ml) and GVB^++ was added to give a total volume of 250 μl. The reaction mixture was incubated at 37° C. for 1 hour and centrifuged. The percentage of lysis was determined by measuring the optical density of the supernatant at 414 nm. The effect of peptides on the alternative pathway was determined by measuring the lysis of rabbit erythrocytes (Er) in NHS. Various concentrations of peptide were mixed with 5 μl of NHS, 5 μl of MgEGTA and 10 μl of Er (1×10^9 /ml) and brought to a final volume of 100 μl in GVB. The reaction mixture was incubated at 37° C. for 20 minutes and stopped by adding 200 μl of GVBE. After centrifugation, hemolysis was determined at 414 nm. The percentage of lysis was normalized by considering 100% lysis to be equal to the lysis occurring in the absence of the peptide.

[3] = read-out: ALTERNATIVE PATHWAY IC50

alternative pathway of complement activation, sequence (P01024 23-1663): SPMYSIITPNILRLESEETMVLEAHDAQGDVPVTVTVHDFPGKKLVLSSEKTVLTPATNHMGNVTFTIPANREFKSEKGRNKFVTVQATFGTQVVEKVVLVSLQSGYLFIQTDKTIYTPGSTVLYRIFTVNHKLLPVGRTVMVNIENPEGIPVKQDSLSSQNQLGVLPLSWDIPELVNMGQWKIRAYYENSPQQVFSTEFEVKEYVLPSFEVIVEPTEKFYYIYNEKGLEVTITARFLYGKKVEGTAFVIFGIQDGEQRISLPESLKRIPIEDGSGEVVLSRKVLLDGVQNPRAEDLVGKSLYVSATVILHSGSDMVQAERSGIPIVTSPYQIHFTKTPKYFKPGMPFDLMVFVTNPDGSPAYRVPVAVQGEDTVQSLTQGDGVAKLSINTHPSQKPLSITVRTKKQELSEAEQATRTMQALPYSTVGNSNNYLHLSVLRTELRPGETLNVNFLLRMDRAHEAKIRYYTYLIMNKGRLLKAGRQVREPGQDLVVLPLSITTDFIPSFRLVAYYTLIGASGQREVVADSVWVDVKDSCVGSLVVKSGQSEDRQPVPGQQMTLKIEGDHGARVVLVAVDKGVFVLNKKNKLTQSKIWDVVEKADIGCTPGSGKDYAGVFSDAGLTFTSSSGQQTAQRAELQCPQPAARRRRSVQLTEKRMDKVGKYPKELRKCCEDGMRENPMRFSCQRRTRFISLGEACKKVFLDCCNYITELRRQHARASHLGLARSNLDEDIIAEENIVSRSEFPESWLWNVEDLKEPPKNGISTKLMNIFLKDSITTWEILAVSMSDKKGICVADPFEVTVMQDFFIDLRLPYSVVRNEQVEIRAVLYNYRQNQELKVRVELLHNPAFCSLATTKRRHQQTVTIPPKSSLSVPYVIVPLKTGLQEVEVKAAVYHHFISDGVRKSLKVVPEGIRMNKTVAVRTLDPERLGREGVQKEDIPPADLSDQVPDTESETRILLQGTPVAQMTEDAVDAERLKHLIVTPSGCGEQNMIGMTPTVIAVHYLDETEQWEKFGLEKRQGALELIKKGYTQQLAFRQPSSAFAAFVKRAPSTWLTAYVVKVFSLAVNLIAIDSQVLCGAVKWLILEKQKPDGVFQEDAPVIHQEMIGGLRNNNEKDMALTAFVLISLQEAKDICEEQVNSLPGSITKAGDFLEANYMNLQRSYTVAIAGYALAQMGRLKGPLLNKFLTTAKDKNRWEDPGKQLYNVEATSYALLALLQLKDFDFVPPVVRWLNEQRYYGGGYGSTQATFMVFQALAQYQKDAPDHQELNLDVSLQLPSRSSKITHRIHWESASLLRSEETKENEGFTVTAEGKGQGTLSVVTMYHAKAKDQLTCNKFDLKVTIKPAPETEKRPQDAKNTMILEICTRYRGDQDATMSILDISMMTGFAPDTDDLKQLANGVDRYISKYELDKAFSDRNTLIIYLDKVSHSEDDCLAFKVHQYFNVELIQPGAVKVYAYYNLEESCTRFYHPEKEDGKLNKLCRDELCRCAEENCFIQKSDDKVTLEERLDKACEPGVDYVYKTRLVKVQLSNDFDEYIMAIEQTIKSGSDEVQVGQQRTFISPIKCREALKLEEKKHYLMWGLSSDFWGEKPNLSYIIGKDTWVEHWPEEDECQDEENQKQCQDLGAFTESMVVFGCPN

| Molecule | IC50 [1, 3] [µM] | IC50 ([1]; read-out: A[…] IC50) [µM] | other results |
| --- | --- | --- | --- |
| C[C@@H](O)[C@H](NC(=O)[C@@H]1CSSC[C@H](N)C(=O)N[C@@H](Cc2c[nH]cn2)C(=O)N[C@@H](Cc2c[nH]cn2)C(=O)N[C@@H](CCCNC(=N)N)C(=O)N1)C(N)=O [VII] (H-CHHRCT-NH2; disulfide 1-5) | > 600 |  |  |
| CC(C)[C@@H]1NC(=O)[C@@H](N)CSSC[C@@H](C(=O)N[C@H](C(N)=O)[C@@H](C)O)NC(=O)[C@H](CCCNC(=N)N)NC(=O)[C@H](Cc2c[nH]cn2)NC(=O)[C@H](Cc2c[nH]cn2)NC(=O)CNC(=O)[C@H](Cc2c[nH]c3ccccc23)NC(=O)[C@H](CC(=O)O)NC(=O)[C@H](CCC(N)=O)NC1=O [XII] (H-CVQDWGHHRCT-NH2; disulfide 1-10) | > 600 |  |  |
| C[C@@H](O)[C@H](NC(=O)[C@@H]1CSSC[C@H](N)C(=O)N[C@@H](CC(=O)O)C(=O)N[C@@H](Cc2c[nH]c3ccccc23)C(=O)NCC(=O)N[C@@H](Cc2c[nH]cn2)C(=O)N[C@@H](Cc2c[nH]cn2)C(=O)N[C@@H](CCCNC(=N)N)C(=O)N1)C(N)=O [X] (H-CDWGHHRCT-NH2; disulfide 1-8) | > 600 |  |  |
| C[C@@H](O)[C@H](NC(=O)[C@@H]1CSSC[C@H](N)C(=O)N[C@@H](CCC(N)=O)C(=O)N[C@@H](CC(=O)O)C(=O)N[C@@H](Cc2c[nH]c3ccccc23)C(=O)NCC(=O)N[C@@H](Cc2c[nH]cn2)C(=O)N[C@@H](Cc2c[nH]cn2)C(=O)N[C@@H](CCCNC(=N)N)C(=O)N1)C(N)=O [XI] (H-CQDWGHHRCT-NH2; disulfide 1-9) | > 600 |  |  |
| CC(C)[C@@H]1NC(=O)[C@H](C)NC(=O)[C@@H](N)CSSC[C@@H](C(N)=O)NC(=O)[C@H](CCCNC(=N)N)NC(=O)[C@H](Cc2c[nH]cn2)NC(=O)[C@H](Cc2c[nH]cn2)NC(=O)CNC(=O)[C@H](Cc2c[nH]c3ccccc23)NC(=O)[C@H](CC(=O)O)NC(=O)[C@H](CCC(N)=O)NC1=O [XV] (H-CAVQDWGHHRC-NH2; disulfide 1-11) |  | 1200 |  |
| CC(C)[C@@H]1NC(=O)[C@H](C(C)C)NC(=O)[C@@H](N)CSSC[C@@H](C(N)=O)NC(=O)[C@H](CCCNC(=N)N)NC(=O)[C@H](Cc2c[nH]cn2)NC(=O)[C@H](Cc2c[nH]cn2)NC(=O)CNC(=O)[C@H](Cc2c[nH]c3ccccc23)NC(=O)[C@H](C)NC(=O)[C@H](CCC(N)=O)NC1=O [XVIII] (H-CVVQAWGHHRC-NH2; disulfide 1-11) |  | 257 |  |
| CC(C)[C@@H]1NC(=O)[C@H](C(C)C)NC(=O)[C@@H](N)CSSC[C@@H](C(N)=O)NC(=O)[C@H](CCCNC(=N)N)NC(=O)[C@H](Cc2c[nH]cn2)NC(=O)[C@H](Cc2c[nH]cn2)NC(=O)CNC(=O)[C@H](C)NC(=O)[C@H](CC(=O)O)NC(=O)[C@H](CCC(N)=O)NC1=O [XIX] (H-CVVQDAGHHRC-NH2; disulfide 1-11) | 182 |  |  |
| CC(C)[C@@H]1NC(=O)[C@@H](N)CSSC[C@@H](C(N)=O)NC(=O)[C@H](CCCNC(=N)N)NC(=O)[C@H](Cc2c[nH]cn2)NC(=O)[C@H](Cc2c[nH]cn2)NC(=O)CNC(=O)[C@H](Cc2c[nH]c3ccccc23)NC(=O)[C@H](CC(=O)O)NC(=O)[C@H](CCC(N)=O)NC(=O)[C@H](C)NC1=O [XVI] (H-CVAQDWGHHRC-NH2; disulfide 1-11) |  | 67 |  |
| CC(C)[C@@H]1NC(=O)[C@H](C(C)C)NC(=O)[C@@H](N)CSSC[C@@H](C(N)=O)NC(=O)[C@H](CCCNC(=N)N)NC(=O)[C@H](Cc2c[nH]cn2)NC(=O)[C@H](Cc2c[nH]cn2)NC(=O)CNC(=O)[C@H](Cc2c[nH]c3ccccc23)NC(=O)[C@H](CC(=O)O)NC(=O)[C@H](CCC(N)=O)NC1=O [VI] (H-CVVQDWGHHRC-NH2; disulfide 1-11) |  | 33 |  |
| ICVVQDWGHHRCTAGHYY [SEQ ID NO: 23, peptide of the invention containing tyrosine residues at its C-terminus] |  |  | activity in hemolytic assay [2]: equal activity to Peptide IV |
| CC(C)[C@@H]1NC(=O)[C@H](C(C)C)NC(=O)[C@@H](N)CSSC[C@@H](C(N)=O)NC(=O)[C@H](CCCNC(=N)N)NC(=O)[C@H](Cc2c[nH]cn2)NC(=O)[C@H](C)NC(=O)CNC(=O)[C@H](Cc2c[nH]c3ccccc23)NC(=O)[C@H](CC(=O)O)NC(=O)[C@H](CCC(N)=O)NC1=O [XXI] (H-CVVQDWGAHRC-NH2; disulfide 1-11) |  | 15 |  |
| CC(C)[C@@H]1NC(=O)[C@H](C(C)C)NC(=O)[C@@H](N)CSSC[C@@H](C(N)=O)NC(=O)[C@H](CCCNC(=N)N)NC(=O)[C@H](C)NC(=O)[C@H](Cc2c[nH]cn2)NC(=O)CNC(=O)[C@H](Cc2c[nH]c3ccccc23)NC(=O)[C@H](CC(=O)O)NC(=O)[C@H](CCC(N)=O)NC1=O [XXII] (H-CVVQDWGHARC-NH2; disulfide 1-11) |  | 74 |  |
| CC(C)[C@@H]1NC(=O)[C@H](C(C)C)NC(=O)[C@@H](N)CSSC[C@@H](C(N)=O)NC(=O)[C@H](C)NC(=O)[C@H](Cc2c[nH]cn2)NC(=O)[C@H](Cc2c[nH]cn2)NC(=O)CNC(=O)[C@H](Cc2c[nH]c3ccccc23)NC(=O)[C@H](CC(=O)O)NC(=O)[C@H](CCC(N)=O)NC1=O [XXIII] (H-CVVQDWGHHAC-NH2; disulfide 1-11) | 70 |  |  |
| CC(C)[C@@H]1NC(=O)[C@H](C(C)C)NC(=O)[C@@H](N)CSSC[C@@H](C(N)=O)NC(=O)[C@H](CCCNC(=N)N)NC(=O)[C@H](Cc2c[nH]cn2)NC(=O)[C@H](Cc2c[nH]cn2)NC(=O)[C@H](C)NC(=O)[C@H](Cc2c[nH]c3ccccc23)NC(=O)[C@H](CC(=O)O)NC(=O)[C@H](CCC(N)=O)NC1=O [XX] (H-CVVQDWAHHRC-NH2; disulfide 1-11) |  | > 1200 |  |
| CC[C@H](C)[C@H](N)C(=O)N[C@@H](CSCC(N)=O)C(=O)N[C@H](C(=O)N[C@H](C(=O)N[C@@H](CCC(N)=O)C(=O)N[C@@H](CC(=O)O)C(=O)N[C@@H](Cc1c[nH]c2ccccc12)C(=O)NCC(=O)N[C@@H](Cc1c[nH]cn1)C(=O)N[C@@H](Cc1c[nH]cn1)C(=O)N[C@@H](CCCNC(=N)N)C(=O)N[C@@H](CSCC(N)=O)C(=O)N[C@H](C(=O)N[C@@H](C)C(=O)NCC(=O)N[C@@H](Cc1c[nH]cn1)C(=O)N[C@@H](CCSC)C(=O)N[C@@H](C)C(=O)N[C@@H](CC(N)=O)C(=O)N[C@@H](CC(C)C)C(=O)N[C@H](C(=O)N[C@@H](CO)C(=O)N[C@@H](Cc1c[nH]cn1)C(=O)N[C@@H](C)C(=O)N[C@@H](CO)C(=O)N[C@@H](C)C(=O)N[C@H](C(N)=O)[C@@H](C)CC)[C@@H](C)O)[C@@H](C)O)C(C)C)C(C)C [II] (H-IC(Cam)VVQDWGHHRC(Cam)TAGHMANLTSHASAI-NH2) | > 300 |  |  |
| CC(C)[C@@H]1NC(=O)[C@H](C(C)C)NC(=O)[C@@H](N)CSSC[C@@H](C(N)=O)NC(=O)[C@H](CCCNC(=N)N)NC(=O)[C@H](Cc2c[nH]cn2)NC(=O)[C@H](Cc2c[nH]cn2)NC(=O)CNC(=O)[C@H](Cc2c[nH]c3ccccc23)NC(=O)[C@H](CC(=O)O)NC(=O)[C@H](C)NC1=O [XVII] (H-CVVADWGHHRC-NH2; disulfide 1-11) |  | 910 |  |
| C[C@@H](O)[C@H](NC(=O)[C@@H]1CSSC[C@H](N)C(=O)N[C@@H](Cc2c[nH]c3ccccc23)C(=O)NCC(=O)N[C@@H](Cc2c[nH]cn2)C(=O)N[C@@H](Cc2c[nH]cn2)C(=O)N[C@@H](CCCNC(=N)N)C(=O)N1)C(N)=O [IX] (H-CWGHHRCT-NH2; disulfide 1-7) | > 600 |  |  |
| CC[C@H](C)[C@H](N)C(=O)N[C@@H](CSCC(N)=O)C(=O)N[C@H](C(=O)N[C@H](C(=O)N[C@@H](CCC(N)=O)C(=O)N[C@@H](CC(=O)O)C(=O)N[C@@H](Cc1c[nH]c2ccccc12)C(=O)NCC(=O)N[C@@H](Cc1c[nH]cn1)C(=O)N[C@@H](Cc1c[nH]cn1)C(=O)N[C@@H](CCCNC(=N)N)C(=O)N[C@@H](CSCC(N)=O)C(=O)N[C@H](C(N)=O)[C@@H](C)O)C(C)C)C(C)C [Peptide V] | > 300 |  |  |
| C[C@@H](O)[C@H](NC(=O)[C@@H]1CSSC[C@H](N)C(=O)NCC(=O)N[C@@H](Cc2c[nH]cn2)C(=O)N[C@@H](Cc2c[nH]cn2)C(=O)N[C@@H](CCCNC(=N)N)C(=O)N1)C(N)=O [VIII] (H-CGHHRCT-NH2; disulfide 1-6) | > 600 |  |  |
| CC(C)[C@@H]1NC(=O)[C@H](C(C)C)NC(=O)[C@@H](N)CSSC[C@@H](C(N)=O)NC(=O)[C@H](Cc2c[nH]cn2)NC(=O)CNC(=O)[C@H](Cc2c[nH]c3ccccc23)NC(=O)[C@H](CC(=O)O)NC(=O)[C@H](CCC(N)=O)NC1=O [XIV] (H-CVVQDWGHC-NH2; disulfide 1-9) | > 600 |  |  |
| CC(C)[C@@H]1NC(=O)[C@H](C(C)C)NC(=O)[C@@H](N)CSSC[C@@H](C(N)=O)NC(=O)[C@H](Cc2c[nH]c3ccccc23)NC(=O)[C@H](CC(=O)O)NC(=O)[C@H](CCC(N)=O)NC1=O [XIII] (H-CVVQDWC-NH2; disulfide 1-7) | > 600 |  |  |
